Results taken from ChEMBL document CHEMBL3085649, “2'-Deoxyuridine 5'-monophosphate substrate displacement in thymidylate synthase through 6-hydroxy-2H-naphtho[1,8-bc]furan-2-one derivatives” (J Med Chem, 2013).
Calls of active or inactive are those of the source. The calls are words filed in the database; no cut-off is given here.

Experiments:
[1] = target: T1, Thymidylate synthase (Pneumocystis carinii) (UniProt P13100); assay: Inhibition of Pneumocystis carinii thymidylate synthase using MTHF and dUMP as substrates at 100 uM
T1 sequence (whole entry): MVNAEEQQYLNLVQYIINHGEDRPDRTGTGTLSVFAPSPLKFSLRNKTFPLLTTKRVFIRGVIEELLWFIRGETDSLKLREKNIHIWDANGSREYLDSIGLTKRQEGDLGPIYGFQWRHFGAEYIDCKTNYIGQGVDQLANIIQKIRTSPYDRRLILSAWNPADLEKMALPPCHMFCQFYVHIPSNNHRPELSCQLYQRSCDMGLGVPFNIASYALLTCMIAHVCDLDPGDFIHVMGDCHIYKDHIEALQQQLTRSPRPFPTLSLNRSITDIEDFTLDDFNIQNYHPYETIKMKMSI

[2] = target: T2, Thymidylate synthase (Lactobacillus casei) (UniProt P00469); assay: Inhibition of Lactobacillus casei thymidylate synthase using MTHF and dUMP as substrates at 100 uM; conditions: Lacticaseibacillus casei
T2 sequence (whole entry): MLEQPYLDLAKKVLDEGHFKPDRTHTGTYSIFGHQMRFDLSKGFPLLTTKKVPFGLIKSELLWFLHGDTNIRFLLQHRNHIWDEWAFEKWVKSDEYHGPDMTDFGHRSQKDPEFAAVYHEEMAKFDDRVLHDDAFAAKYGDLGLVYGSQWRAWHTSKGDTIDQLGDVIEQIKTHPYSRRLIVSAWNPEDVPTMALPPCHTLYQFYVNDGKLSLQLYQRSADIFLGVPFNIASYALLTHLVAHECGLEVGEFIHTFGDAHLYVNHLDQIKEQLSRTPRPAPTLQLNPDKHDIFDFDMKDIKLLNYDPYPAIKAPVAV

Escherichia coli = assay: Inhibition of Escherichia coli thymidylate synthase using MTHF and dUMP as substrates at 100 uM
Enterococcus faecalis = assay: Inhibition of Enterococcus fecalis thymidylate synthase using MTHF and dUMP as substrates at 100 uM
[3] = target: Thymidylate synthase (Homo sapiens) (UniProt P04818); assay: Inhibition of human thymidylate synthase using MTHF and dUMP as substrates at 100 uM
Sequence of Thymidylate synthase (Homo sapiens) (P04818 2-313 limits assumed): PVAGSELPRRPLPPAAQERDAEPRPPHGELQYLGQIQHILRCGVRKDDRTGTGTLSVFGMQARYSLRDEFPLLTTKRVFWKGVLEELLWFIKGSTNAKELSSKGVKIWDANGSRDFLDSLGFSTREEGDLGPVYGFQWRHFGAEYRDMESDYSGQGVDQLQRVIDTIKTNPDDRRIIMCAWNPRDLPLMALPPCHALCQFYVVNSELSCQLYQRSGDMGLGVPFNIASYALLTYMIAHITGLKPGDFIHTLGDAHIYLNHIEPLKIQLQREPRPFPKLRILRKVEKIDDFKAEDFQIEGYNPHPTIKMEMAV

Thymidylate synthase [4] = target: T3, Thymidylate synthase (Pneumocystis carinii, UniProt P13100); assay: Inhibition of Pneumocystis carinii thymidylate synthase using MTHF and dUMP as substrates
T3 sequence (P13100 whole entry): T1 sequence (whole entry)

Thymidylate synthase [5] = target: T4, Thymidylate synthase (Lactobacillus casei, UniProt P00469); assay: Inhibition of Lactobacillus casei thymidylate synthase using MTHF and dUMP as substrates; parameters: species or system Lacticaseibacillus casei
T4 sequence (P00469 whole entry): T2 sequence (whole entry)

[6] = Inhibition of Escherichia coli thymidylate synthase using MTHF and dUMP as substrates
[7] = Inhibition of Enterococcus fecalis thymidylate synthase using MTHF and dUMP as substrates; parameters: species or system Enterococcus faecalis

| Structure (SMILES) | inhibition [1] | inhibition [2] | inhibition (Escherichia coli) | inhibition (Enterococcus faecalis) | inhibition [3] | Ki (Thymidylate synthase [4]) | Ki (Thymidylate synthase [5]) | Ki [7] | Ki [6] |
| --- | --- | --- | --- | --- | --- | --- | --- | --- | --- |
| O=C(Oc1ccc2c3c(cccc13)C(=O)O2)c1ccc2c(c1)OCO2 | inactive | inactive | inactive | inactive | inactive | – | – | – | – |
| O=C(Oc1ccc2c3c(cccc13)C(=O)O2)c1ccco1 | – | – | inactive | – | – | 15 µM | 13 µM | 20 µM | – |
| O=C(Oc1ccc2c3c(cccc13)C(=O)O2)c1cccc(C(F)(F)F)c1 | inactive | – | inactive | – | inactive | – | 33 µM | 41 µM | – |
| CC(C)COC(=O)Oc1ccc2c3c(cccc13)C(=O)O2 | inactive | – | inactive | inactive | inactive | – | 9 µM | – | – |
| O=C(Oc1ccc2c3c(cccc13)C(=O)O2)c1ccc([N+](=O)[O-])cc1 | – | – | – | – | – | 3.5 µM | 1.2 µM | 27 µM | 6 µM |
| O=C(Oc1ccc2c3c(cccc13)C(=O)O2)c1ccc(SC(F)(F)F)cc1 | inactive | inactive | inactive | inactive | inactive | – | – | – | – |
| CCOC(=O)Oc1ccc2c3c(cccc13)C(=O)O2 | – | – | – | – | – | 34 µM | 10 µM | 37 µM | 67 µM |

Continued, in another order:

| inhibition [1] | inhibition [2] | inhibition (Escherichia coli) | inhibition (Enterococcus faecalis) | inhibition [3] | Ki (Thymidylate synthase [4]) | Ki (Thymidylate synthase [5]) | Ki [7] | Structure (SMILES) | Ki [6] |
| --- | --- | --- | --- | --- | --- | --- | --- | --- | --- |
| – | – | inactive | inactive | inactive | 10 µM | 6 µM | – | C/C=C/C(=O)Oc1ccc2c3c(cccc13)C(=O)O2 | – |
| – | – | – | – | – | 0.31 µM | 0.39 µM | 14 µM | N#Cc1cccc(C(=O)Oc2ccc3c4c(cccc24)C(=O)O3)c1 | 4 µM |
| – | – | – | inactive | inactive | 18 µM | 49 µM | – | O=C1Oc2ccc(OC(=O)C3CCCCC3)c3cccc1c23 | 66 µM |
| – | – | – | – | – | 19 µM | 10 µM | 41 µM | C=CC(=O)Oc1ccc2c3c(cccc13)C(=O)O2 | – |
